ChEMBL document CHEMBL1150691, “New lysophosphatidylcholines and monoglycerides from the marine sponge Stelletta sp” (2003)
Converted amounts (≈) assume the structure as drawn.

Key:
Type in all cases: functional
Details in all cases: read-out: ED50 (the source's name)
A549 = assay: Cytotoxicity against human A549 cells
SK-OV-3 = assay: Cytotoxicity against human SKOV3 cells
SK-MEL-2 = assay: Cytotoxicity against human SK-MEL-2 cells
XF498 = assay: Cytotoxicity against human XF498 cells
HCT-15 = assay: Cytotoxicity against human HCT15 cells

Row | SMILES | EC50 (A549) [µg/mL] | EC50 (SK-OV-3) [µg/mL] | EC50 (SK-MEL-2) [µg/mL] | EC50 (XF498) [µg/mL] | EC50 (HCT-15) [µg/mL]
1 | C=CCCCCC(C)CCC/C=C\C#CCC[C@H](OC)C(=O)OC[C@@H](O)COP(=O)([O-])CC[N+](C)(C)C (stereo not given in full) | 11.8 (≈ 21.7 µM) | 14.5 (≈ 26.7 µM) | 9.1 (≈ 16.7 µM) | 13.6 (≈ 25 µM) | 15.1 (≈ 27.8 µM)
2 | CC(C)CCCCCCCCCC(C)C(=O)OC[C@@H](O)COP(=O)([O-])CC[N+](C)(C)C (stereo not given in full) [STELLETTACHOLINE B] | 7.4 (≈ 15.9 µM) | 4.8 (≈ 10.3 µM) | 6.3 (≈ 13.5 µM) | 24.1 (≈ 51.8 µM) | 26.9 (≈ 57.8 µM)
3 | CC(C)CCCCCCCCCC(C)C(=O)OC[C@@H](O)CO (stereo not given in full) | 20 (≈ 63.2 µM) | 38.9 (≈ 123 µM) | 21.8 (≈ 68.9 µM) | 30.7 (≈ 97 µM) | 18.6 (≈ 58.8 µM)
4 | COC(=O)CCCCCCCCCCCCCCO | 25.9 (≈ 95.1 µM) | 35.7 (≈ 131 µM) | > 30 | > 30 | 16.5 (≈ 60.6 µM)
5 | COC(=O)CCCCCCCCCCCCCCCCO | > 30 | > 30 | > 30 | > 30 | > 30
6 | C=CCCCCC(C)CCC/C=C\C#CCC[C@H](OC)C(=O)OC[C@@H](O)CO (stereo not given in full) | 31.3 (≈ 79.3 µM) | > 30 | > 30 | 42.5 (≈ 108 µM) | > 30
7 | CC(C)CCCCCCCCCCCCC/C=C\CCCC(=O)OC[C@@H](O)CO | > 30 | > 30 | > 30 | > 30 | > 30
8 | CC(C)CCCCCCCCCCCC/C=C\CC/C=C\CCCC(=O)OC[C@@H](O)CO | > 30 | > 30 | > 30 | > 30 | > 30
9 | COc1cccc2c1C(=O)c1c(O)c3c(c(O)c1C2=O)C[C@@](O)(C(=O)CO)C[C@@H]3O[C@H]1C[C@H](N)[C@H](O)[C@H](C)O1 [DOXORUBICIN] | 0.03 (≈ 0.0552 µM) | 0.13 (≈ 0.239 µM) | 0.06 (≈ 0.11 µM) | 0.19 (≈ 0.35 µM) | 0.29 (≈ 0.534 µM)
